# From ChEMBL document CHEMBL1201862, “PubChem BioAssay data set” (2004)
#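 Cultured in 96-well plates, cells were exposed to test compound for 48 hours across five concentrations. At the GI50, growth is halved.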 Activity calls are given as the source filed them. No stated cut-off is given here; in the data, active = GI50 up to about 1.1 µM and inactive = higher.
# How the values were obtained:
# Test in all cases: NCI anticancer screen, dose series, 48 h
# UACC-257 = tested on: UACC-257
# NCI-H23 = tested on: NCI-H23
# COLO 205 = tested on: COLO 205
# 786-0 = tested on: 786-0
# SF-539 = tested on: SF-539
# MDA-MB-231 = tested on: MDA-MB-231
# NCI-H460 = tested on: NCI-H460
# SK-MEL-2 = tested on: SK-MEL-2
# PC-3 = tested on: PC-3
# BT-549 = tested on: BT-549
# SNB-19 = tested on: SNB-19
# Malme-3M = tested on: Malme-3M
# SW-620 = tested on: SW-620
# DU-145 = tested on: DU-145
# MDA-MB-435 = tested on: MDA-MB-435
# M14 = tested on: M14
# SK-MEL-28 = tested on: SK-MEL-28
# RXF 393 = tested on: RXF 393
# SF-268 = tested on: SF-268
# TK-10 = tested on: TK-10
# SNB-75 = tested on: SNB-75
# KM12 = tested on: KM12
# U-251 = tested on: U-251
# SN12C = tested on: SN12C
# A549 = tested on: A549
# Hs-578T = tested on: Hs-578T
# UACC-62 = tested on: UACC-62
# OVCAR-8 = tested on: OVCAR-8
# NCI-H522 = tested on: NCI-H522
# HOP-62 = tested on: HOP-62
# SF-295 = tested on: SF-295
# IGROV-1 = tested on: IGROV-1
# A498 = tested on: A498
# ACHN = tested on: ACHN
# CCRF-CEM = tested on: CCRF-CEM
# NCI-H226 = tested on: NCI-H226
# UO-31 = tested on: UO-31
# EKVX = tested on: EKVX
# OVCAR-5 = tested on: OVCAR-5
# T47D = tested on: T47D
# SK-MEL-5 = tested on: SK-MEL-5
# MDA-N = tested on: MDA-N
# HOP-92 = tested on: HOP-92
# HCT-116 = tested on: HCT-116
# K562 = tested on: K562
# HCT-15 = tested on: HCT-15
# SK-OV-3 = tested on: SK-OV-3
# HT-29 = tested on: HT-29
# NCI/ADR-RES = tested on: NCI/ADR-RES
# HCC 2998 = tested on: HCC 2998
# CAKI-1 = tested on: CAKI-1
# MOLT-4 = tested on: MOLT-4
# LOX IMVI = tested on: LOX IMVI
# MCF7 = tested on: MCF7
# SR = tested on: SR
# OVCAR-4 = tested on: OVCAR-4
# RPMI-8226 = tested on: RPMI-8226
# OVCAR-3 = tested on: OVCAR-3
# HL-60 = tested on: HL-60
structure (smiles),measurement,setting,value
C[N+]1(CCN[N+]2(C)CCCCC2)CCc2ccccc2C1 (configuration not stated),GI50,UACC-257,> 100 µM (inactive)
same,GI50,NCI-H23,> 100 µM (inactive)
same,GI50,COLO 205,> 100 µM (inactive)
same,GI50,786-0,> 100 µM (inactive)
same,GI50,SF-539,58.3 µM (inactive)
same,GI50,MDA-MB-231,> 100 µM (inactive)
same,GI50,NCI-H460,> 100 µM (inactive)
same,GI50,SK-MEL-2,> 100 µM (inactive)
same,GI50,PC-3,> 100 µM (inactive)
same,GI50,BT-549,> 100 µM (inactive)
same,GI50,SNB-19,> 100 µM (inactive)
same,GI50,Malme-3M,> 100 µM (inactive)
same,GI50,SW-620,> 100 µM (inactive)
same,GI50,DU-145,> 100 µM (inactive)
same,GI50,MDA-MB-435,> 100 µM (inactive)
same,GI50,M14,> 100 µM (inactive)
same,GI50,SK-MEL-28,> 100 µM (inactive)
same,GI50,RXF 393,> 100 µM (inactive)
same,GI50,SF-268,> 100 µM (inactive)
same,GI50,TK-10,> 100 µM (inactive)
same,GI50,SNB-75,> 100 µM (inactive)
same,GI50,KM12,> 100 µM (inactive)
same,GI50,U-251,> 100 µM (inactive)
same,GI50,SN12C,> 100 µM (inactive)
same,GI50,A549,> 100 µM (inactive)
same,GI50,Hs-578T,> 100 µM (inactive)
same,GI50,UACC-62,> 100 µM (inactive)
same,GI50,OVCAR-8,> 100 µM (inactive)
same,GI50,NCI-H522,> 100 µM (inactive)
same,GI50,HOP-62,> 100 µM (inactive)
same,GI50,SF-295,> 100 µM (inactive)
same,GI50,IGROV-1,> 100 µM (inactive)
same,GI50,A498,> 100 µM (inactive)
same,GI50,ACHN,> 100 µM (inactive)
same,GI50,CCRF-CEM,> 100 µM (inactive)
same,GI50,NCI-H226,60.4 µM (inactive)
same,GI50,UO-31,> 100 µM (inactive)
same,GI50,EKVX,> 100 µM (inactive)
same,GI50,OVCAR-5,> 100 µM (inactive)
same,GI50,T47D,> 100 µM (inactive)
same,GI50,SK-MEL-5,> 100 µM (inactive)
same,GI50,MDA-N,> 100 µM (inactive)
same,GI50,HOP-92,> 100 µM (inactive)
same,GI50,HCT-116,> 100 µM (inactive)
same,GI50,K562,> 100 µM (inactive)
same,GI50,HCT-15,> 100 µM
same,GI50,SK-OV-3,> 100 µM (inactive)
same,GI50,HT-29,> 100 µM (inactive)
same,GI50,NCI/ADR-RES,> 100 µM (inactive)
same,GI50,HCC 2998,> 100 µM (inactive)
same,GI50,CAKI-1,> 100 µM (inactive)
same,GI50,MOLT-4,> 100 µM (inactive)
same,GI50,LOX IMVI,> 100 µM (inactive)
same,GI50,MCF7,> 100 µM (inactive)
same,GI50,SR,> 100 µM (inactive)
same,GI50,OVCAR-4,> 100 µM (inactive)
same,GI50,RPMI-8226,> 100 µM (inactive)
same,GI50,OVCAR-3,> 100 µM (inactive)
COc1cc(C(=O)CBr)c(OC)cc1C,GI50,UACC-257,> 100 µM (inactive)
same,GI50,NCI-H23,> 100 µM (inactive)
same,GI50,COLO 205,> 100 µM (inactive)
same,GI50,786-0,> 100 µM (inactive)
same,GI50,SF-539,> 100 µM (inactive)
same,GI50,MDA-MB-231,> 100 µM (inactive)
same,GI50,SK-MEL-2,> 100 µM (inactive)
same,GI50,PC-3,> 100 µM (inactive)
same,GI50,BT-549,36.2 µM (inactive)
same,GI50,SNB-19,> 100 µM (inactive)
same,GI50,Malme-3M,> 100 µM (inactive)
same,GI50,SW-620,> 100 µM (inactive)
same,GI50,DU-145,> 100 µM (inactive)
same,GI50,MDA-MB-435,> 100 µM (inactive)
same,GI50,M14,> 100 µM (inactive)
same,GI50,SK-MEL-28,> 100 µM (inactive)
same,GI50,RXF 393,> 100 µM (inactive)
same,GI50,SF-268,> 100 µM (inactive)
same,GI50,TK-10,> 100 µM (inactive)
same,GI50,SNB-75,> 10 µM (inactive)
same,GI50,KM12,> 100 µM (inactive)
same,GI50,U-251,> 100 µM (inactive)
same,GI50,SN12C,> 100 µM (inactive)
same,GI50,A549,> 100 µM (inactive)
same,GI50,Hs-578T,72.4 µM (inactive)
same,GI50,UACC-62,85.7 µM (inactive)
same,GI50,OVCAR-8,> 100 µM (inactive)
same,GI50,NCI-H522,> 100 µM (inactive)
same,GI50,HOP-62,> 100 µM (inactive)
same,GI50,SF-295,> 100 µM (inactive)
same,GI50,IGROV-1,> 100 µM (inactive)
same,GI50,A498,84.7 µM (inactive)
same,GI50,ACHN,> 100 µM (inactive)
same,GI50,CCRF-CEM,> 100 µM (inactive)
same,GI50,NCI-H226,75.5 µM (inactive)
same,GI50,UO-31,97.3 µM (inactive)
same,GI50,EKVX,> 100 µM (inactive)
same,GI50,OVCAR-5,> 100 µM (inactive)
same,GI50,T47D,> 100 µM (inactive)
same,GI50,SK-MEL-5,52.7 µM (inactive)
same,GI50,MDA-N,> 100 µM (inactive)
same,GI50,HCT-116,> 100 µM (inactive)
same,GI50,K562,> 100 µM (inactive)
same,GI50,HCT-15,> 100 µM
same,GI50,SK-OV-3,> 100 µM (inactive)
same,GI50,HT-29,> 100 µM (inactive)
same,GI50,NCI/ADR-RES,> 100 µM (inactive)
same,GI50,HL-60,> 100 µM (inactive)
same,GI50,CAKI-1,> 100 µM (inactive)
same,GI50,MOLT-4,> 100 µM (inactive)
same,GI50,LOX IMVI,> 100 µM (inactive)
same,GI50,MCF7,> 100 µM (inactive)
same,GI50,SR,> 100 µM (inactive)
same,GI50,RPMI-8226,> 100 µM (inactive)
